Experimental data published in patent US6498164B1, “Barbituric acid derivative and preventive and therapeutic agent for bone and cartilage containing the same” (Aventis Pharma S.A., priority 1998, dated 2002).

System: osteocytes containing osteoclasts
Assay: Pit formation assay (bone resorption inhibition on ivory slices)
Format: cell-based, ICR mice
Conditions: compound 1 × 10^−5 M, ivory piece, 3 days culture; for inhibition at 10 µM: Mus musculus, Osteoclast, 72 h, 0% = no compound with rPTH 1×10^−8 M, 100% = no resorption cavity, read-out: Inhibiting rate; for Number of resorption cavity (mean ± SD): rPTH 1×10^−8 M
Description: ICR mice 11-12 days old (Charles River) were subjected to euthanasia through ether anesthesia, and disinfected by dipping in 70% ethanol immediately. Subsequently, a femur and a shank of a mouse was removed, chopped in an -MEM culture medium (Flow Labs Corp.) containing 5% FBS (Irving Scientific Corp.), 100 U/mL penicillin, and 100 µg/mL streptomycin. Supernatant obtained by pipetting was collected, washed with culture medium solution, suspended in a solution containing 5% FBS and -MEM culture medium to yield osteocytes containing osteoclasts. Supernatant of osteocyte suspending solution was taken 3 minutes after standing still to pass through meshes (Cell Strainer, 70 m, Falcon Corp.). The filtrate was adjusted to the concentration of 1 107 cells/mL to use for pit formation assay.
(2) Test by the pit formation assay
An ivory piece was cut into slices in 150 m thickness by using a precision, low speed cutter (Buehler Corp.) and punched to make a cylinderial holes in 6 mm diameter. The ivory piece was dipped in 70% ethanol, treated by sonication for 5 minutes twice, and washed with sterilized PBS three times and with culture medium twice. The ivory piece was put in pits of a 96-pit culture plate (Falcon Corp.), 100 μl of culture medium, that contains a chemical compound of the present invention adjusted to a concentration of 2×10^−5 M, was poured into each pit, and 100 μL of culture medium, that contains 1×10^7 osteocytes/mL previously prepared, into each pit (the final concentration of the compound was 1×10^−5 M), and finally cultivation was carried out in an incubator under 37° C. and 10% CO2 for 3 days. Then cells on an ivory piece were removed in 2 M sodium hydroxide solution, washed with water and methanol to stain resorption cavity with Coomassie Brilliant Blue and count numbers of absorbed cavities under a microscope. The inhibition rate of bone resorption was calculated on the basis that resorption cavity was assumed 0% in the case of no addition of the compound under the presence of rPTH (1×10^−8 M) in the solution and the case of no resorption cavity was assumed 100%. A good result was yielded in the same experiment with variation of resorption cavity numbers among experimental groups due to a difference among proportions of various cell in the solution, in which osteocytes were suspended, and also among the lot numbers of used animals.

Row | SMILES | inhibition at 10 µM | Number of resorption cavity (mean ± SD)
1 | O=C(Cc1ccccc1)C1C(=O)N(Cc2ccccc2)C(=O)N(Cc2ccccc2)C1=O [Compound No. 2, 1,3-Dibenzyl-5-(phenylacetyl)barbituric Acid] | 99% | 2.2 ± 0.6
2 | CC(C)CCN1C(=O)C(C(=O)CC(C)C)C(=O)N(CCC(C)C)C1=O [Compound No. 4, 1,3-Bis(3-methylbutyl)-5-(3-methyl-1-oxobutyl)barbituric Acid] | 90.6% | 21.1 ± 4.3
3 | CC(C)CC(=O)C1C(=O)N(Cc2ccccc2)C(=O)N(Cc2ccccc2)C1=O [Compound No. 1, 1,3-Dibenzyl-5-(3-methyl-1-oxobutyl)barbituric Acid] | 99.2% | 1.0 ± 0.5
4 | O=C(Cc1cccs1)C1C(=O)N(Cc2ccccc2)C(=O)N(Cc2ccccc2)C1=O [Compound No. 3, 1,3-Dibenzyl-5-(2-thienylacetyl)barbituric Acid] | 96.7% | 7.0 ± 1.7
